Data on one molecule can be found in ChEMBL document CHEMBL1147990 (Bioorg Med Chem, 2007).

This assay addresses Carbonic anhydrase 5A, mitochondrial (Homo sapiens, UniProt P35218). Kind of assay: Inhibition of human carbonic anhydrase 5A.

Sequence of Carbonic anhydrase 5A, mitochondrial (P35218 whole entry): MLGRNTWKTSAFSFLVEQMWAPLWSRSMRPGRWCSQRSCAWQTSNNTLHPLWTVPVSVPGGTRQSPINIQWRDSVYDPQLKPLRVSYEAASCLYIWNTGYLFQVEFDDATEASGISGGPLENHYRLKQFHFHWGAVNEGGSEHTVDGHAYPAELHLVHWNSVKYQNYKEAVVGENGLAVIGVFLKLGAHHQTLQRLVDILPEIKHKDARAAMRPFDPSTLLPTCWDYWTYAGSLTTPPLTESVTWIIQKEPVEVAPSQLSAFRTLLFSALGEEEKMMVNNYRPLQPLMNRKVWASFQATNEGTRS

In the case of `CC1(C)O[C@@H]2[C@@H](CO[C@@]3(COS(N)(=O)=O)OC(C)(C)O[C@@H]23)O1` [TOPIRAMATE], binding was put at a Kd of 25.4 nM.

As usually defined, the Kd is a measure of binding affinity in units of concentration. A lower Kd goes with tighter binding.
